Measurements published in patent US6046340A, “Imidazole containing pseudodipeptide product and compositions containing the same” (Exsymol Societe Anonyme Monegasque, priority 1993, dated 2000).

Assays:
murine splenocytes = experiment: Immunostimulating power: proliferation of murine splenocytes (tritiated thymidine incorporation); format: cell-based; details: for stimulation index (IS): mean of three measurements
From the text: Then experimental procedure is extracted from: J. Kunert-Radek, H. Stepien, K. Lyson and M. Pawlikowki--"Effects of calcium channel modulators on the proliferation of mouse spleen lymphocytes in vitro"--Agents and Actions, vol. 29 Nos 3-4 (1990), p. 254-258.
The cell proliferation is followed by the measurement of the incorporation rate of the tritiated thymidine in the cells, expressed in number of desintegrations per mn, deduced from the background noise.
The results obtained with an immunostimulator of reference, the concanavaline A, are given for comparison.
The immunostimulating effect is expressed with a stimulation index (SI). [formula] The values correspond to the mean value of three measurements.

[1] = Inhibitory power on the hydroxyl radical (deoxyribose oxidation, EDTA/iron, H2O2, thiobarbituric acid/MDA detection); format: biochemical; details: antioxidant 10 mM; deoxyribose substrate
From the text: Experimental procedure described by J. M. C. Gutteridge in Biochemistry Journal, vol 224 (1984), p. 761-767: oxidation substrate: deoxyribose, system of production of the hydroxyl radical OH.:
Detection: thiobarbituric acid/mondialdehyde (MDA)
Antioxidant of reference: dipeptide β-alanyl-L-histidine (sensitive to enzymatic deactivation)

[2] = Inhibitory power on the superoxide anion (xanthine oxydase/hypoxanthine, cytochrome C reduction at 550 nm); format: biochemical; details: for ability to inhibit the superoxide anion / reduction of cytochrom c (in words): enzymatic system generating superoxide anion
From the text: System of production of superoxide anion:xanthine oxydase/hypoxanthine (absence of iron).
The superoxide anion is a reducing substance. It is more especially able to reduce a substrate, the cytochrome C. Its reduction is followed with ultraviolet spectrophotometry to 550 nm.
The percentage of inhibition is described as follows: […]

human monocytes = experiment: Cell proliferation of a homogenous population of human monocytes (tritiated thymidine incorporation); format: cell-based
From the text: In order to specify the pseudodipeptides mode of action, a second experiment has been carried out on an homogenous population of human monocytes.
Cell proliferation has been evaluated the same way as previously: […]

% of inhibition (superoxide anion, cytochrome C reduction) ([2]; 1 mM)	% of inhibition (superoxide anion, cytochrome C reduction) ([2]; 5 mM)	% of inhibition (superoxide anion, cytochrome C reduction) ([2]; 10 mM)	% of inhibition (superoxide anion, cytochrome C reduction) ([2]; 20 mM)	ability to inhibit the superoxide anion / reduction of cytochrom c (in words) [2]	Molecule	stimulation index (IS) (murine splenocytes; 2.5 μg/ml)	stimulation index (IS) (murine splenocytes; 5.0 μg/ml)	stimulation index (IS) (murine splenocytes; 10.0 μg/ml)	stimulation index (IS) (murine splenocytes; 25.0 μg/ml)	concentration of maximal immunostimulating effect (murine splenocytes; murine splenocytes)	% inhibiton (hydroxyl radical OH.) [1]	stimulation index (IS) (human monocytes; 2.50 μg/ml)	stimulation index (IS) (human monocytes; 5.00 μg/ml)	stimulation index (IS) (human monocytes; 10.00 μg/ml)	stimulation index (IS) (human monocytes; 25.00 μg/ml)	average factor of activity versus concanavaline A (human monocytes; human monocytes)
3,5%	14%	24%	35%	strongly inhibit	N[C@@H](CCC(=O)O)C(=O)NCCc1c[nH]cn1 [L-glutamyl-histamine, L-Glutamyl-histamine]	7.8	42.7	42.1	5.6	5 µg/mL	0%	8.23	39.80	23.50	2.50	1.34
				do not have the ability to inhibit	NCCC(=O)N[C@@H](Cc1c[nH]cn1)C(=O)O [β-alanyl-L-histidine, reference compound]						38%					
				do not have the ability to inhibit	O=C(NCCc1c[nH]cn1)[C@@H]1CCCN1 [L-prolyl-histamine]						62%					
					concanavaline A [reference compound]	8.3	33.4	61.5	4.3			4.82	29.60	21.10		
